# Results as given in ChEMBL document CHEMBL1158463 (J Med Chem, 2009).
# Tested on: Canis familiaris
# Assay: Toxicity in dog assessed as change in cardiovascular variables up to 5 mg/kg by telemetry study
# Type: organism-based, Canis lupus familiaris, Heart
# Parameters: dose 5 mg/kg
# Conditions: in vivo
row,Compound,Activity
1,Cc1cccc2c1CC[C@H](CN1CCC(c3c(Cl)cccc3Cl)CC1)C[C@@H]2O,Non-toxic
2,CN1CC(C(=O)NCCCN2CCC3(CCc4ccccc43)CC2)CC1=O (stereo not drawn),Non-toxic
3,Cc1ccc2nc(NC(=O)c3ccc(Cl)cc3)nc(N[C@H]3CCCC[C@H]3NC(=N)N)c2c1,Non-toxic
4,O[C@H]1C[C@H](CN2CC[C@H](c3ccc(F)cc3Cl)[C@@H](O)C2)Cc2cccnc21,Non-toxic
5,CCN1CCN(c2cc3[nH]c(C(=O)[C@]4(C)CC[C@](C)(O)CC4)nc3cc2C)CC1,Non-toxic
6,CCc1ccc(OCc2ccccc2C(=O)Nc2ccc3nc(C)cc(N)c3c2)cc1,Non-toxic
7,COC(=O)C1Cc2ccccc2N1C(=O)CCN1CCC2(CCc3ccccc32)CC1 (stereo not drawn),Non-toxic
8,O=C(NCCCN1CCC2(CC1)OCc1ccccc12)[C@H]1CCCN1Cc1ccccc1,Non-toxic
